Results: article PMC12454603 (Archives of Toxicology, 2025)

How the values were obtained:
[1] = In vivo kinetic study, intravenous 50 mg/kg bw, blood concentrations; conditions: rat, 50 mg/kg bw parent PAH
Description: Six male Sprague–Dawley rats at the age of 8–9 weeks weighing 286-305g/rat were obtained from Charles River Inc (Beijing, China). The rats were maintained in plastic cages in two groups of three in a temperature-controlled (ranging from 20 °C to 25 °C) and humidity-controlled (ranging from 40–70%) environment on a 12-h light–dark cycle. The animal bedding was corncob and used after autoclaving. The bedding and the cages were changed twice a week. The number of animals was restricted to 3 per dose group and control blood samples were collected before dosing. Feeding and living conditions followed the Chinese Laboratory Animal-Requirement of environment and housing facilities (GB14925-2010). The present rat study was approved by Institutional Animal Care and Use Committee (IACUC-BF202305006).
All animals were fasted 8 h before intravenous injection and resumed feed supply 4 h after dosing.
After administration, blood samples (0.1–0.2 ml blood volume) were taken from the medial canthus venous plexus of the animal and anticoagulated with sodium heparin. Prior to orbital venipuncture and blood collection, the animals were anesthetized by CO2 inhalation (70% CO2 + 30% O2). Blood was sampled at 1 min, 0.5, 1, 2, 4, 8, 12, 24, 32, 48, and 72 h post-dosing. After collection, blood samples were frozen and were stored at −20 °C until analysis. All animals were euthanized with 100% CO2 after the experiment.
Aliquots of 100 µL of blood samples were transferred into centrifuge tubes and 700 µL sodium acetate buffer (0.1M, pH 5.0) and 6 µL β-glucuronidase-arylsulfatase were added. The samples were incubated for 1 h at 37 °C and subsequently extracted twice with 800 µL ethyl acetate saturated with water. The samples were shaken for 30 min and centrifuged 5 min at 2000 g (4 °C). The upper organic phase was transferred to a centrifuge tube and evaporated under a gentle stream of nitrogen at 40 ℃ in a water bath. The residues were re-dissolved with 200 µL ascorbic acid:methanol (1:100). […]

ES-D3 cells = experiment: ES-D3 cell cytotoxicity (WST-1 viability) assay of the mEST; type: cell-based, mouse; conditions: 1-day and 5-day cytotoxicity, ES-D3 cells
Description: The viability of the ES-D3 cells following 1-day and 5-day exposure to the test compounds was measured with the WST-1 assay. To this end, 100 µL cell suspension was seeded in the inner 60 wells of 96-well plates at a concentration of 2 × 10^5 cells/ml for 1-day exposure and 10^4 cells/ml for 5-day exposure and incubated at 37 °C with 5% CO2 for 24 h. After 24 h, 100 µL exposure medium with 0.25% DMSO and the required concentration of the test compounds, solvent control, and positive control were added to the cells in triplicate. The plates were incubated at 37 °C with 5% CO2 for 1 day or 5 days until measurement. After the exposure period, 20 µL of the cell proliferation reagent WST-1 were added to each well that contained cells and the cells were incubated for 3 h at 37 °C with 5% CO2. The absorbance of each plate was measured at 440 nm and 620 nm with a SpectraMax iD3 (San Jose, USA).
The concentration–response data for the test compounds in the mEST were presented in three curves including curves for 1-day cytotoxicity, 5-day cytotoxicity, and 10-day differentiation assays. The obtained curves were fitted using the inhibition equation log (inhibitor) vs response (three parameters) option using GraphPad Prism software 5.0 (California, USA).

For Cc1ccc2c(c1)cc1ccc3c(O)ccc4ccc2c1c43 [3-OH-8-MBaP, 3-Hydroxy-8-methyl-benzo[a]pyrene], the “Observed in vivo Cmax relative to the model prediction (lower)” value [1] was 3.4 fold, the “Observed in vivo blood concentration compared with that of 3-OHBaP” value [1] was “comparable” and the “Cytotoxicity accompanying the inhibition of differentiation” value (ES-D3 cells) was “without accompanying cytotoxicity”.
